Laboratory results: publication PMC8388760, “Novel Bifunctional Acylase from Actinoplanes utahensis: A Versatile Enzyme to Synthesize Antimicrobial Compounds and Use in Quorum Quenching Processes” (Antibiotics, 2021)

System: T1, AuAHLA
T1 construct: gene ahla; full ORF of 808 residues expressed untagged in Rhodococcus sp; T104, secreted; signal peptide of 34-35 aa removed
Experiment: hydrolysis, o-phthalaldehyde fluorometric assay of released primary amine
Assay type: biochemical, Actinoplanes utahensis
Conditions: 0.2 M potassium phosphate pH 8.0, 45 °C
From the text: hydrolysis, o-phthalaldehyde fluorometric assay of released primary amine on AuAHLA

| Km (20% (v/v) DMSO) | SMILES | Km |
| --- | --- | --- |
| 860 ± 150 µM | CCCCCCCC(=O)N[C@H]1CCOC1=O [C8-HSL, N-octanoyl-L-homoserine lactone] |  |
| 84 ± 21 µM | CCCCCCCCCC(=O)N[C@H]1CCOC1=O [C10-HSL, N-decanoyl-L-homoserine lactone] |  |
| 8 ± 2 µM | CCCCCCCCCCCC(=O)N[C@H]1CCOC1=O [C12-HSL, N-dodecanoyl-L-homoserine lactone] |  |

The next lines start with the compound.

| SMILES | Km (20% (v/v) DMSO) | Km |
| --- | --- | --- |
| CCCCCC(=O)CC(=O)N[C@H]1CCOC1=O [3-oxo-C8-HSL, N-(3-oxooctanoyl)-L-homoserine lactone] | 1040 ± 420 µM |  |
| CCCCCCCC(=O)CC(=O)N[C@H]1CCOC1=O [3-oxo-C10-HSL, N-(3-oxodecanoyl)-L-homoserine lactone] | 238 ± 86 µM |  |
| CCCCCCCCCC(=O)CC(=O)N[C@H]1CCOC1=O [3-oxo-C12-HSL, N-(3-oxododecanoyl)-L-homoserine lactone] | 92 ± 21 µM |  |
| CCCCCC(=O)N[C@H]1CCOC1=O [C6-HSL, N-hexanoyl-L-homoserine lactone] | 2250 ± 500 µM |  |
| CC1(C)S[C@@H]2[C@H](NC(=O)Cc3ccccc3)C(=O)N2[C@H]1C(=O)O [Penicillin G] |  | 1210 ± 300 µM |
| CCCCCCCC(=O)N[C@@H]1C(=O)N2[C@@H]1SC(C)(C)[C@@H]2C(=O)O [Penicillin K] |  | 675 ± 190 µM |
| CC1(C)S[C@@H]2[C@H](NC(=O)COc3ccccc3)C(=O)N2[C@H]1C(=O)O [Penicillin V] |  | 472 ± 50 µM |
| CCCCCC(=O)N[C@@H]1C(=O)N2[C@@H]1SC(C)(C)[C@@H]2C(=O)O [Penicillin dihidroF] |  | 199 ± 20 µM |
